Values joined by “and” are separate entries in the source; they are usually repeats but may differ in a detail not shown here. Equal values may be shown once. Read-outs that look alike come from different tables or passages of the source.

In experiment [1] the test system is HepG2 cells. As to the kind of experiment: Cell counting kit-8 (CCK-8) cell viability assay in HepG2. The format is cell-based, human. To be noted: HepG2, 48 hours treatment, read-out: CCK-8 assay in HepG2: IC50. The protocol:
(§1) Cellc ount ing k it-8 (CCK-8) assa y
Cell vi ability was de termine d by ou r previ ous method9 usi ng the Cell Counting Kit-8 (CCK -8, Dojindo, Ja pa n). In hu man he pa tocellu lar carcinom a cell line HepG 2, cells were seede d in 96-well plate and starve d for ove r 12 h with se rum-free DMEM at 60~ 70% conf lue nc y, the n trea ted wit h com pounds or ve hicle for 24 h to 72 h accor ding to expe riment requi rement s. […]
(§2) 10 μl CCK-8 sol ution was adde d to the cul ture medium and inc ub ated at 37 °C for 1 h. Th e absor banc e at 450 nm (A450) was de tected by a pl ate reade r. Each e xperi ment w as carr ied out i n t riplic ate i n thr ee r eplic ate w ells.
A general note: Formazan colour is commonly taken as a measure of viable cells.

The target in experiment [2] is T1, NAMPT A244S mutant (Homo sapiens, UniProt P43490, A244S).
T1 construct: His-tag; made in house; host or cells: E. coli BL21-CodonPlus (DE3)-RIL
T1 sequence (P43490 whole entry A244S): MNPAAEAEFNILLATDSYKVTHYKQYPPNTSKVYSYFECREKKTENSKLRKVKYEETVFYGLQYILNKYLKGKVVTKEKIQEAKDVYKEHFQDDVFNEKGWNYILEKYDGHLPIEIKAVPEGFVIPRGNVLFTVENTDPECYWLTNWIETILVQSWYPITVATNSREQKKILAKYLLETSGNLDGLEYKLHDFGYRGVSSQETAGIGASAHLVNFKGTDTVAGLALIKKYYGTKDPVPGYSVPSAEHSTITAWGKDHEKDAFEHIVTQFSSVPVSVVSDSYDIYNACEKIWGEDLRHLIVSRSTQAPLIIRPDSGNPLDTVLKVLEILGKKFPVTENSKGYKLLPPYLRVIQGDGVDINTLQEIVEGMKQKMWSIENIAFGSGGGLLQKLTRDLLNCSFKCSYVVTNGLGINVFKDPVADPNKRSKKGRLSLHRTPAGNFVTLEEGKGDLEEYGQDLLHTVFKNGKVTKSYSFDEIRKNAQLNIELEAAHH
In words: NAMPT activity assay, A244S mutant. To be noted: for IC50: same condition as wild-type, read-out: IC50 against A244S mutant. Format: biochemical.

Experiment [3] has as its target T2, NAMPT I309Y mutant (Homo sapiens, UniProt P43490, I309Y).
T2 construct: His-tag; made in house; host or cells: E. coli BL21-CodonPlus (DE3)-RIL
As to the kind of experiment: NAMPT activity assay, I309Y mutant. The format is biochemical. To be noted: for IC50: same condition as wild-type, read-out: IC50 against I309Y mutant.

Experiment [4] has as its system HCT116 cells. As to the kind of experiment: SRB assay in HCT116. Format: cell-based. To be noted: Homo sapiens, HCT-116; HCT116, SRB, 10-fold concentration gradient; read-out: anti-proliferation IC50, initial screen. The procedure: (§3) Sulfor hod am ine B p rotei n st ai ning (SRB) assay
(§4) Cell pr oliferat ion was eva lua ted by sul for hod amine B pr ot ein st aini ng (SRB) assa y10-12.
(§5) Briefly, cel ls were se ede d int o 96-well pl ates, cul tur ed overni ght , and trea ted with correspond ing com poun ds for 72 h. Cells were the n fixe d with 10% trichl or oa cetic aci d and st ained with sul for hoda mine B (Sigm a). Sul for hoda mine B in the cells was di sso lved in 10 mmol/L Tris-HCl and was measured at 515 nm usi ng a multiw ell spect ropho tometer (VERSA max, Mol ecul ar Devi ces, Sunnyva le, CA). The inhi bi tion rat e on cell pr olif eratio n was cal culated for each well as (A515contr ol cells-A 515tr eated cells)/A515contr ol cells×100 % (A515:
(§6) OD va lue at 515 nm ). The averag e IC50 va lue s were de termine d by Logit method from at leas t t hr eei nde pe nde nt test s.

Experiment [5] addresses T3, NAMPT (Homo sapiens, UniProt P43490). In words: Cellular thermal shift assay (CETSA / […]) in intact HepG2 cells. The format is cell-based. More on the design: endogenous in cells; host or cells: HepG2. To be noted: for ITDRFCETSA of NAMPT in cell lysate versus intact cells: lysate value relative to intact cells; for CETSA target binding of NAMPT in intact cell: intact HepG2 cells, 10 μM, 3 h.

For experiment [6], the system named is Huh7-C cells. As to the kind of experiment: CCK-8 assay in stem-like human hepatoma cell line Huh7-C. The format is cell-based. To be noted: Huh7-C, treated 60 h, read-out: CCK-8 assay in Huh7-C: IC50. The protocol: as §1
Cell vi ability was de termine d by ou r previ ous method9 usi ng the Cell Counting Kit-8 (CCK -8, […]
as §2

The test system of experiment [7] is A549 cells. In words: SRB assay in A549. Format: cell-based, human. To be noted: Homo sapiens; A549, SRB, 10-fold concentration gradient; read-out: anti-proliferation IC50, initial screen. The procedure: as §3, §4, §5, §6
Experiment [8] has as its target T4, NAMPT H191A mutant (Homo sapiens, UniProt P43490, H191A).
T4 construct: His-tag; made in house; host or cells: E. coli BL21-CodonPlus (DE3)-RIL
In words: NAMPT activity assay, H191A mutant. To be noted: for IC50: same condition as wild-type, read-out: IC50 against H191A mutant. Format: biochemical.

In experiment [9] the target is T3, NAMPT. As to the kind of experiment: NAMPT activity assay by fluorescence of NMN derivative (HTS system), IC50 determination. Format: biochemical. More on the design: His-tag; made in house; host or cells: E. coli BL21-CodonPlus (DE3)-RIL.
The target in experiment [10] is T3, NAMPT. As to the kind of experiment: Cellular thermal shift assay (CETSA / […]) in HepG2 cell lysate. Format: binding. More on the design: endogenous in cells; host or cells: HepG2. The note with it: for CETSA melting curve shift of NAMPT in cell lysate: HepG2 cell lysate, 100 μM.
In experiment [11] the test system is HepG2 cells. As to the kind of experiment: Sulforhodamine B protein staining (SRB) assay in HepG2. To be noted: Homo sapiens. Format: cell-based, human. The protocol: as §3, §4, §5, §6
Background: Sulforhodamine B stains cellular protein and so reports cell mass.

In experiment [12] the test system is NAD level of HepG2 cells. In words: Cellular NAD level, spectrophotometric enzymatic cycling assay. Format: cell-based, human. To be noted: HepG2, even at 100 μM, 24 hours. From the text:
F0 was the average d fluo rescen ce of si x backgr ound control s, repres ent ing zero activ ity from a si mul ated enz ym e reaction wit h on ly NAMP T but no NAM and com pound; F100 % was the average d fluorescen ce of si x ref erence cont rols, repr ese nt ing 100% activ ity from int act enz ym e reaction w ithou t com pound p ert ur bation.
Compounds with Activ ity% less tha n 40% were consi dered as inhi bi tor s and subj ect ed to a secondary screen inhi bition valida tion, in whi ch anot her backgr oun d cont rol (FC0), a si mul ated enz ym e reaction with NAMP Tand com pound but no NAM, was int roduced to elimina te the di rec t and /or ind irect inf lue nc e fro m compou nd. At thi s st age , the Activ ity% was cal culated accor ding t o e qua tion ( 2) :
In the screeni ng, the si gna l-to- noi se (S/N) rat io was cal cul ated usi ng the equa tion: (Mean signal -Mean backgr oun d) / SD backgr oun d4. Coe fficient s of vari atio n (CV) were the ratio of SD to mean. The Z ’f act or w as de term ine d by e qua tion (3) 5:
Z' −= (3)1−3(S Dhi ghsigna l+SDlowsigna l)
Mean hi gh signa l Meanlow signa l
Determ inat ion of IC50 for NAMPT inhi bitor s […]
vari ous con cent ration s were adde d int o 96-well pl ate. The pl ate was inc uba ted at 37 °C for 5 min after addition of 16.5 μl react ion buf fer cont aini ng N AMP T. The enz ym e reactions were ini tiated by 4.5 μl NAM (1.1 1 μM) follow ing NMN measurem ent as de scri bed above . […]
Cellul ar level of NAD was measured by spe ctrophot om etric enz ym atic cyc ling assa y, as de scri bed pr evi ousl y6-8. […]
Cell vi ability was de termine d by ou r previ ous method9 usi ng the Cell Counting Kit-8 (CCK -8, Dojindo, Ja pa n). […] Th e absor banc e at 450 nm (A450) was de tected by a pl ate reade r. […]
Briefly, cel ls were se ede d int o 96-well pl ates, cul tur ed overni ght , and trea ted with correspond ing com poun ds for 72 h. […] Sul for hoda mine B in the cells was di sso lved in 10 mmol/L Tris-HCl and was measured at 515 nm usi ng a multiw ell spect ropho tometer […]

Experiment [13] addresses T3, NAMPT. On the set-up: His-tag; made in house; host or cells: E. coli BL21-CodonPlus (DE3)-RIL. To be noted: previous study of the authors ref 7; read-out: NAMPT inhibition activity IC50; cited from earlier work.
Setting [14] is: recombinant human NAMPT, mean ± s.e., read-out: NAMPT IC50.
Setting [15] is: wild type, run beside the mutants, read-out: IC50 against wild-type NAMPT (mutagenesis study).
The mark [16] stands for this setting: HepG2, 72 h, HepG2, second test, 2-fold concentration gradient, 72 hours, read-out: SRB assay in HepG2: IC50.
The mark [17] stands for this setting: HepG2, HepG2, SRB, 10-fold concentration gradient, read-out: anti-proliferation IC50, initial screen.

T2 sequence (P43490 whole entry I309Y): as the sequence (P43490 whole entry A244S) above, with S244A, I309Y counted along it
T3 sequence (P43490 whole entry): as the sequence (P43490 whole entry A244S) above, with S244A counted along it
T4 sequence (P43490 whole entry H191A): as the sequence (P43490 whole entry A244S) above, with H191A, S244A counted along it

Regarding `CC(C)(C)OC(=O)N1CCN(S(=O)(=O)c2ccc(NC(=S)NCc3cccnc3)cc2)CC1` [MS1], the IC50 in [1] is 326 nM; in experiment [1] (Homo sapiens, HepG2, 48 h), 326 ± 73.3 nM; in experiment [2] it was 36.1 ± 4.11 nM; in [3] it was 58.3 ± 2.3 nM; in [4] it was below 5000 nM; in experiment [6] it was 308 ± 32.2 nM. Besides, the IC50 in experiment [7] is below 5000 nM; in experiment [8], 25.3 ± 2.36 nM; in experiment [9] (setting [14]), 21.7 nM; in [9] (setting [15]), 24.6 ± 2.65 nM; in [11] (setting [16]), around 3000 nM; in experiment [11] (setting [17]) it was below 5000 nM. In addition, the “change in IC50/potency versus wild-type NAMPT, A244S” value in experiment [2] lay within 2 to 3 fold. Moreover, the “change in IC50/potency versus wild-type NAMPT, I309Y” value in experiment [3] is given as 2 to 3 fold. Also, the “ITDRFCETSA of NAMPT in cell lysate versus intact cells” value in experiment [5] (62 °C) is reported as “approximately 100 fold”. In addition, the “CETSA target binding of NAMPT in intact cell” value in [5] was “directly bound with NAMPT”. In experiment [8], the “change in IC50 versus wild-type NAMPT, H191A” value was “no change”. Further, the “CETSA melting curve shift of NAMPT in cell lysate” value (shortened to “CETSA melting curve shift of NAMPT”) in experiment [10] was “obvious right shifts”.

As for `O=S(=O)(c1ccc(NC(=S)NCc2cccnc2)cc1)N1CCN(Cc2ccccc2)CC1` [MS7, 1-(4-((4-benzylpiperazin-1-yl)sulfonyl)phenyl)-3-(pyridin-3-ylmethyl)thiourea], the IC50 is 1270 nM in [1]; 1270 ± 158 nM in experiment [1] (Homo sapiens, HepG2, 48 h); 1060 ± 248 nM in experiment [6]; 0.93 nM and 0.9 nM in experiment [9] (setting [14]); above 10000 nM in [11] (setting [16]). In experiment [5] (62 °C), the “ITDRFCETSA of NAMPT in cell lysate versus intact cells” value is listed as “no significant difference”. Besides, in [5] (intact cell, 62 °C), the “ITDRFCETSA for NAMPT in intact cell, difference to MS1 (shifted to the right)” value is on record as “no less than 10 fold”. Besides, the “CETSA melting curve shift of NAMPT” value in [10] was “large thermal shift”. In addition, the “ITDRFCETSA for NAMPT in lysate, compared with MS1” value in experiment [10] (cell lysate, 62 °C) is recorded as “shifted to the left”.

`O=S(=O)(c1ccc(NC(=S)NCc2cccnc2)cc1)N1CCN(Cc2ccc(C(F)(F)F)cc2)CC1` [MS34]: the IC50 is 615 ± 42.4 nM in [1] (Homo sapiens, HepG2, 48 h); 37.7 ± 1.9 nM in experiment [2]; 57.6 ± 3.71 nM in experiment [3]; below 5000 nM in [4]; 514 ± 83.3 nM in experiment [6]; below 5000 nM in experiment [7]. Besides, the IC50 in [8] was 25.2 ± 2.42 nM; in [9] (setting [14]) it was 23.7 ± 7.8 nM; in experiment [9] (setting [15]) it was 24.8 ± 1.87 nM; in experiment [11] (setting [16]) it was around 3000 nM; in experiment [11] (setting [17]), below 5000 nM. Moreover, the “change in IC50/potency versus wild-type NAMPT, A244S” value in [2] lay in the range of 2 to 3 fold. In addition, in experiment [3], the “change in IC50/potency versus wild-type NAMPT, I309Y” value was in the range of 2 to 3 fold. Besides, in experiment [5], the “CETSA target binding of NAMPT in intact cell” value is recorded as “directly bound with NAMPT”. Further, the “change in IC50 versus wild-type NAMPT, H191A” value in experiment [8] is reported as “no change”. In addition, the “CETSA melting curve shift of NAMPT” value in experiment [10] is listed as “obvious right shifts”.

Take `O=S(=O)(c1ccc(NC(=S)NCc2ccncc2)cc1)N1CCCCC1` [compound 733, reference compound]: the “effect on cellular NAD level (in words)” value in experiment [12] is recorded as “did not show any effect”. For the same compound, the “inhibition on NAMPT activity (in words)” value in experiment [9] is reported as “no inhibition”.

For `O=C(OC[C@H]1O[C@@H](OC(=O)c2cc(O)c(O)c(OC(=O)c3cc(O)c(O)c(O)c3)c2)[C@H](OC(=O)c2cc(O)c(O)c(OC(=O)c3cc(O)c(O)c(O)c3)c2)[C@@H](OC(=O)c2cc(O)c(O)c(OC(=O)c3cc(O)c(O)c(O)c3)c2)[C@@H]1OC(=O)c1cc(O)c(O)c(OC(=O)c2cc(O)c(O)c(O)c2)c1)c1cc(O)c(O)c(OC(=O)c2cc(O)c(O)c(O)c2)c1` [gallotannin], in experiment [13], the IC50 was 1300 ± 100 nM.

(Values after publication PMC4603696, “Discovery and characterization of novel small-molecule inhibitors targeting nicotinamide phosphoribosyltransferase” (Scientific Reports, 2015).)
